The values that follow come from PMC3407035 (Journal of enzyme inhibition and medicinal chemistry, 2011).

Test [1] has as its target T1, Human GGT1 (gamma-glutamyl transpeptidase, GGT) (Homo sapiens, UniProt P19440). In words: pNA release at […] nm, hydrolysis. It counts as biochemical. The settings on record: read-out: D-GpNA Minus acceptor; no acceptor, pH 7.4, 37 °C.
For test [2], the target named is T1, Human GGT1 (gamma-glutamyl transpeptidase, GGT). The test can be described thus: pNA release at […] nm, transpeptidation. The format is biochemical.

As usually defined, the Ki is a dissociation constant, usually derived from enzyme kinetics or from competition with a known ligand. A low value points to a stronger hold on the target.

T1 sequence (P19440 27-380 limits assumed): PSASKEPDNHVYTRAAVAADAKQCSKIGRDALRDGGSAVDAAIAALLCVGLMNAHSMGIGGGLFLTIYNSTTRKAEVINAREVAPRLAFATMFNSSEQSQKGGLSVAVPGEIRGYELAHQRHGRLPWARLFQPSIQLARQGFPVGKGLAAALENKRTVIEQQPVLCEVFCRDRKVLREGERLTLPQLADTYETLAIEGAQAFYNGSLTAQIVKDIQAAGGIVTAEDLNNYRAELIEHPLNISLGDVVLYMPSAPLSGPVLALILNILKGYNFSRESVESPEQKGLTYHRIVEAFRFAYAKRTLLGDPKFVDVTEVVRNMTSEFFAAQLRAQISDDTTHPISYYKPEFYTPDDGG
T1 sequence (P19440 381-569 limits assumed): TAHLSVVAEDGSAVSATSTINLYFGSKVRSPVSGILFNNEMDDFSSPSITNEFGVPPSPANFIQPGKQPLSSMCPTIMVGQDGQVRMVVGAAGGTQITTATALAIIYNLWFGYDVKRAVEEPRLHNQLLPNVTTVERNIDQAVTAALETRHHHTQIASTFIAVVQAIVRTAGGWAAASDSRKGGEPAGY

Take `N[C@H](CCC(=O)Nc1ccc([N+](=O)[O-])cc1)C(=O)O` [D-GpNA]: in test [1], the Km amounted to 160 ± 20 µM.

`COc1ccc(Cc2nnc(NS(=O)(=O)c3cccc4ccccc34)s2)cc1` [compound 6, Compound 6] had a Ki in test [2] of 45.7 ± 3.4 µM.

Consider `COc1ccc(Cc2nnc(NS(=O)(=O)c3ccc(Cl)cc3)s2)cc1` [compound 10, Compound 10], for which the affinity in test [2] corresponds to a Ki of 13.4 ± 0.8 µM.

`Cc1ccc(Cc2nnc(NS(=O)(=O)c3ccc([N+](=O)[O-])cc3)s2)cc1` [compound 17, Compound 17] displayed a Ki in test [2] of 56.9 ± 8.3 µM.

Regarding `Cc1cccc(Cc2nnc(NS(=O)(=O)c3ccc([N+](=O)[O-])cc3)s2)c1` [compound 18, Compound 18], the Ki in test [2] is 34.3 ± 0.9 µM.
